Measurements published in patent US20220347096A1, “LIPOSOMAL CANNABINOIDS AND USES THEREOF” (YISSUM RESEARCH DEVELOPMENT COMPANY OF THE HEBREW …, priority 2019, published 2022).

Assay: Plasma CBD profile and PK after IV administration
Assay type: in vivo
Details: mice; for Plasma CBD, Mean ± SD: 12 mg/kg
Method: CBD was extracted from plasma samples that were spiked with cannabigerol (CBG, 1 mg/ml in methanol, Sigma, Cat. C-141-1) used as internal standard (IS) followed by dilution of the plasma five-fold in acetonitrile. After vigorous vortex it was centrifuged, and the upper phase was analyzed. Final IS concentration in the samples was 100 ng/ml.
Plasma extracts were analyzed by LCMS method. Specifically, LC-MS/MS analyses were conducted on a Sciex (Framingham, Mass., USA) Triple Quad™ 5500 mass spectrometer coupled with a Shimadzu (Kyoto, Japan) UHPLC System. The concentrations were calculated based on a calibration curve of CBD in plasma at a range of 1-1,000 ng/ml having 100 ng/ml of IS.
IV formulation: The formulation used for IV administration was 10 mg/g CBD formulation solubilized in Cremophor:Ethanol 50:50 solution. This formulation was diluted 10-fold with saline prior to injection to result in 1 mg/ml post dilution concentration. The diluted formulation was used within 1 h after preparation. […]
At the time-points detailed below, 3 mice were euthanized with CO2 and terminal blood was immediately collected from the retro-orbital sinus in labeled 0.5 ml K3EDTA blood collection tubes (Mini Collect, Greiner-bio-one, Austria). The blood was centrifuged at 2000×g for 10 minutes before plasma was extracted, collected in labeled tubes and frozen at −20° C. immediately after collection. The samples were then stored at −80° C. pending analysis. […]

[1] = female, BALB/C, mouse, in vivo, IV 12 mg/kg

SMILES: C=C(C)[C@@H]1CCC(C)=C[C@H]1c1c(O)cc(CCCCC)cc1O [CBD, 2-[(1R,6R)-6-Isopropenyl-3-methylcyclohex-2-en-1-yl]-5-pentylbenzene-1,3-diol]
- AUC(0-inf) [1]: 5020 ng·h/mL
- C0 [1]: 9460 ng/mL
- Cmax [1]: 8860 ng/mL
- Tmax [1]: 4.98 min
- clearance [1]: 39.8 mL/min/kg
- half-life [1]: 101 min
- concentration at 5 min (female, BALB/C, mouse, in vivo, IV 12 mg/kg in Cremophor:Ethanol diluted with saline, 5 min, read-out: Plasma CBD, Mean ± SD): 8860 ng/mL
- concentration at 1 h (female, BALB/C, mouse, in vivo, IV 12 mg/kg, 1 h, read-out: Plasma CBD, Mean ± SD): 177 ± 40 ng/mL
- concentration at 4 h (female, BALB/C, mouse, in vivo, IV 12 mg/kg, 4 h, read-out: Plasma CBD, Mean ± SD): 35 ± 11 ng/mL
- concentration at 8 h (female, BALB/C, mouse, in vivo, IV 12 mg/kg, 8 h, read-out: Plasma CBD, Mean ± SD): 9.5 ng/mL
- AUC (female, BALB/C, mouse, in vivo, IV 12 mg/kg, read-out: AUC0—Tlast): 5000 ng·h/mL
- Vd (female, BALB/C, mouse, in vivo, IV 12 mg/kg, read-out: Vz): 5.79 L/kg
- AUC0—Tlast/Dose (IV 12 mg/kg): 417 (hr*ng/mL)/(mg/kg)
- Cmax/Dose (IV 12 mg/kg): 738 (ng/mL)/(mg/kg)
- Plasma CBD, Mean ± SD (IV 12 mg/kg in Cremophor:Ethanol diluted with saline, 5 min): 8,856 ± 1,451 ng/ml
- Mean plasma CBD concentration normalized to dose (±SD) (IV 12 mg/kg, 5 min): 757 ± 124 ng/mL/mg/kg
- Mean plasma CBD concentration normalized to dose (±SD) (IV 12 mg/kg, 1 h): 15 ± 3.46 ng/mL/mg/kg
- Mean plasma CBD concentration normalized to dose (±SD) (IV 12 mg/kg, 4 h): 2.99 ± 0.90 ng/mL/mg/kg
- Mean plasma CBD concentration normalized to dose (±SD) (IV 12 mg/kg, 8 h): 0.81 ± 0.31 ng/mL/mg/kg
- Plasma CBD, Mean ± SD (IV 12 mg/kg, 8 h): 9.50 ± 3.67 ng/mL
- Mean plasma CBD concentration normalized to dose (±SD) (IV 12 mg/kg, 24 h): BLOD
- Plasma CBD, Mean ± SD (IV 12 mg/kg, 24 h): below the limit of detection and BLOD
- Mean plasma CBD concentration normalized to dose (±SD) (IV 12 mg/kg, 48 h): BLOD
- Plasma CBD, Mean ± SD (IV 12 mg/kg, 48 h): below the limit of detection and BLOD
